Results published in patent US7722901B2, “Uses for the extract of a plant of the family Asclepiadaceae” (Cognis IP Management GmbH, priority 2004, dated 2010).

Tested on: human hair follicles
Assay: In vitro culture of human hair follicles (hair growth inhibition)
Type: cell-based
Settings: 50 follicles from 5 donors
Experimental: The hair follicles were incubated for 7 days at 37° C. under an atmosphere of air that was enriched with carbon dioxide (5 vol.-%). The length of hair follicles was monitored before being cultured, after 3 days of culture and after 7 days of culture. […] The test was done on hair follicles coming from 3-5 different donors. For each donor 10 follicles were cultured for each set of conditions. The results presented in table 2 are the cumulated results of all hair follicles.

[1] = with IGF-1 (30 ng/ml), 0.001 % P/v

C=C[C@@]1(C)CC(=O)[C@]2(O)[C@@]3(C)[C@@H](O)CCC(C)(C)[C@@H]3[C@H](O)[C@H](OC(C)=O)[C@@]2(C)O1 [Forskolin]
increase in hair growth Day 3/Day 0 [1]: +9% | increase in hair growth Day 7/Day 0 [1]: +17% | increase in hair growth Day 3/Day 0 (without IGF-1, 0.001 % P/v): +8% | increase in hair growth Day 7/Day 0 (without IGF-1, 0.001 % P/v): +15%
